Measurements taken from patent US10596268B2, “Conjugate of dezocine and polyethylene glycol” (JenKem Technology Co., Ltd. (Beijing), priority 2016, dated 2020).

Experiments:
[1] = Pharmacokinetic experiment: drug concentration in brain tissue of SD rats after oral administration (LC-MS/MS); details: 10 mg/kg; for AUClast (Brain) / Cmax (Brain) / AUClast Ratio (Brain/Plasma) / t1/2 (Brain) / tmax (Brain): SD rats, oral; for AUClast (Brain) / Cmax (Brain) / t1/2 (Brain) / tmax (Brain): brain tissue; for Kp / Tmax / half-life: male, SD, rat, po; for Kp: brain and plasma; for Tmax / half-life: brain
[2] = test system: CFA rat model; assay: Pharmacodynamic experiment: Frey's hair pain threshold in CFA rat model; type: in vivo, SD rats; details: oral 10 mg/kg; for Pain threshold value, Frey's hair: mean ± standard deviation
[3] = Pharmacokinetic experiment: drug concentration in plasma of SD rats after oral administration (LC-MS/MS); details: 10 mg/kg; for AUC(0-t) / Cmax / Tmax / half-life: male, SD, rat, po; for AUClast (Plasma) / Cmax (Plasma) / t1/2 (Plasma) / tmax (Plasma): SD rats, oral
[4] = in vivo; cited from earlier work
[5] = 0 h (basal value before administration)

Row | Compound | AUClast (Brain) [1] [ng·h/g] | Cmax (Brain) [1] [ng/g] | Kp [1] | Tmax [1] [h] | half-life [1] [h] | Pain threshold value, Frey's hair [2, 5] [g] | Pain threshold value, Frey's hair ([2]; 0.25 h after administration) [g] | Pain threshold value, Frey's hair ([2]; 2 h after administration) [g] | Pain threshold value, Frey's hair ([2]; 6 h after administration) [g] | Pain threshold value, Frey's hair ([2]; 24 h after administration) [g] | AUC(0-t) [3] [ng·h/mL] | Cmax [3] [ng/mL] | Tmax [3] [h] | half-life [3] [h] | AUClast Ratio (Brain/Plasma) [1] | t1/2 (Brain) [1] [h] | tmax (Brain) [1] [h] | AUClast (Plasma) [3] [ng·h/mL] | Cmax (Plasma) [3] [ng/mL] | t1/2 (Plasma) [3] [h] | other results
1 | C[C@@]12CCCCC[C@@H](Cc3ccc(O)cc31)[C@@H]2N [JK-2215D00, 13-amino-5,6,7,8,9,10,11,12-octahydro-5-methyl-5,11-methylenebenzocyclodecen-3-ol, reference compound] | 267 | 221 | 1.15 | 1 | 2.05 | 7.7 ± 1.1 | 9.8 ± 1.0 | 10.2 ± 2.7 | 9.2 ± 1.4 | 7.5 ± 1.8 | 232 | 193 | 1 | 1.41 | – | – | – | – | – | – | analgesic effect at 6 h after administration ([2]; 6 h): not significant; analgesic effect relative to pethidine [4]: 5-9 times; average peak concentration at which adverse reactions occur [4]: 45 µg/L; blood concentration producing a potent analgesic effect [4]: 5 to 9 µg/L
2 | COCCOCCOCCOCCOCCOCCOc1ccc2c(c1)C1(C)CCCCCC(C2)C1N (stereo not drawn) [JK-2215D01, Monomethoxyhexaethylene Glycol-Dezocine Conjugate] | 925 | 147 | – | – | – | 7.6 ± 0.8 | 8.7 ± 1.3 | 9.1 ± 1.3 | 8.7 ± 1.1 | 7.8 ± 1.4 | – | – | – | – | 0.734 | 17.6 | 8 | 1366 | 345 | 4.33 | tmax (Plasma) [3]: 3 h
3 | COCCOCCOCCOCCOCCOCCN[C@H]1[C@H]2CCCCC[C@]1(C)c1cc(O)ccc1C2 [JK-2215D02, Monomethoxyhexaethylene Glycol-Dezocine Conjugate] | 993 | 166 | – | – | – | 7.8 ± 0.8 | 10.3 ± 1.2 | 12.1 ± 1.5 | 13.2 ± 0.9 | 10.7 ± 1.5 | – | – | – | – | 0.757 | 18.7 | 8 | 1312 | 339 | 4.45 | tmax (Plasma) [3]: 3 h
4 | C[C@@]12CCCCC[C@@H](Cc3ccc(O)cc31)[C@@H]2NCCOCCOCCOCCOCCN[C@H]1[C@H]2CCCCC[C@]1(C)c1cc(O)ccc1C2 [JK-2215D03, Pentaethylene Glycol-Dezocine Conjugate] | 813 | 129 | 0.659 | 7 | 19.7 | 7.7 ± 1.4 | 9.2 ± 1.4 | 11.2 ± 2.0 | 11.4 ± 0.9 | 10.6 ± 2.0 | 1230 | 344 | 2 | 4.12 | – | – | – | – | – | – | –
